From patent publication US4528133A, “Biologically active tripeptide and tetrapeptide alkylamides, and method for the preparation thereof” (SPOFA, spojene podniky pro zdravotnickou vyrobu, priority 1982, dated 1985)
pKi: −log10 of the molar value. Like-named read-outs stand apart in the source and are kept apart here. Where a SMILES comes first, the peptide text is derived from it. The star is where a group is joined. Undecanoyl = CCCCCCCCCCC(=O)*; Cbz = O=C(OCc1ccccc1)*; Butyryl = CCCC(=O)*; NHiBu = CC(C)CN*; NHPr = CCCN*

Key:
pancreatic elastase = pancreatic elastase (UniProt P00772); test: Inhibition of pancreatic elastase (PE), Ki with synthetic nitroanilide substrates; type: biochemical
Chain of pancreatic elastase (P00772 27-266): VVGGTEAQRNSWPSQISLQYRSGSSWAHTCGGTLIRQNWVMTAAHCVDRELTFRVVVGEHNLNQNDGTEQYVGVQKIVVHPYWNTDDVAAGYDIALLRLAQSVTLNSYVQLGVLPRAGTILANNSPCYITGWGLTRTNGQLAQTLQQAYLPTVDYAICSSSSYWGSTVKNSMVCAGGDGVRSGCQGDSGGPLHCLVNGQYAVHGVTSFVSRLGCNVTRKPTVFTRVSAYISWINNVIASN

leucocytal elastase = target: T1, leucocytal elastase (Homo sapiens, UniProt P08246); test: Inhibition of leucocytal elastase (LE), Ki with synthetic nitroanilide substrate; type: biochemical; conditions: substrate Glt-(Ala)3-Val-Nan; for pKi: read-out: Inhibition constant Ki, LE, Glt--(Ala)3--Val--Nan
T1 sequence (P08246 30-267): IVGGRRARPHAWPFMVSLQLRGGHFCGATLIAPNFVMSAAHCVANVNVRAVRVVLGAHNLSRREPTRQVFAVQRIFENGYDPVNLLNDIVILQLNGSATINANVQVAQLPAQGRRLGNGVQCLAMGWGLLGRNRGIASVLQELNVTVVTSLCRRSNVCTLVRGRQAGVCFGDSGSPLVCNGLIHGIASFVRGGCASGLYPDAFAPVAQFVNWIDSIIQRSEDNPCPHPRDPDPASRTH

[1] = substrate Glt-(Ala)4-Nan, read-out: Inhibition constant Ki, PE, Glt--(Ala)4--Nan
[2] = substrate Suc-(Ala)4-Nan, read-out: Inhibition constant Ki, PE, Suc--(Ala)4--Nan

Row | SMILES | pKi (pancreatic elastase; [1]) | pKi (pancreatic elastase; [2]) | pKi (leucocytal elastase) | Inhibition constant Ki, LE, Glt--(Ala)3--Val--Nan (leucocytal elastase)
1 | CCCC(=O)N[C@@H](CC(=O)O)C(=O)N[C@@H](C)C(=O)N[C@@H](C)C(=O)N1CCC[C@H]1C(=O)NCC(C)C [Btr--Asp--Ala--Ala--Pro--NH--iBu, N^α -Butyrylaspartyl-alanyl-alanyl-proline isobutylamide] (Butyryl-DAAP-NHiBu) | 3.92 | 3.92 | 3.87 | 
2 | CCCCCCCCCC=CCC(CC(=O)O)C(=O)N[C@@H](C)C(=O)N[C@@H](C)C(=O)N[C@@H](C)C(=O)NCC (some centres unmarked) [Dde--Ala--Ala--Ala--NH--Et, N-(2-Dodecenylsuccinyl)alanyl-alanyl-alanine ethylamide] | 5.74 | 5.60 |  | no inhibition
3 | CCCNC(=O)[C@@H]1CCCN1C(=O)[C@H](C)NC(=O)[C@H](C)NC(=O)[C@H](CCC(=O)O)NC(=O)CCC [Btr--Glu--Ala--Ala--Pro--NH--Pr] (Butyryl-EAAP-NHPr) | 3.71 | 3.75 | 3.74 | 
4 | CCCCCCCCCC=CCC(CC(=O)O)C(=O)N[C@@H](C)C(=O)N[C@@H](C)C(=O)N[C@@H](C)C(=O)NCC(C)C (some centres unmarked) [Dde--Ala--Ala--Ala--NH--iBu] | 4.03 | 4.00 | 3.29 | 
5 | CCNC(=O)[C@H](C)NC(=O)[C@H](C)NC(=O)[C@@H]1CCCN1C(=O)[C@H](CC(=O)O)NC(C)=O [Ac--Asp--Pro--Ala--Ala--NH--Et, N^α -Acetylaspartyl-prolyl-alanyl-alanine ethylamide] (Ac-DPAA-NHEt) | 4.47 | 4.60 | 3.00 | 

More lines, now with the values ahead:

Row | pKi (pancreatic elastase; [1]) | pKi (pancreatic elastase; [2]) | pKi (leucocytal elastase) | Inhibition constant Ki, LE, Glt--(Ala)3--Val--Nan (leucocytal elastase) | SMILES
6 | 3.76 | 4.55 | 3.14 |  | CCNC(=O)[C@H](C)NC(=O)[C@H](C)NC(=O)[C@H](C)NC(=O)[C@H](CCC(=O)O)NC(=O)OCc1ccccc1 [Z--Glu--Ala--Ala--Ala--NH--Et] (Cbz-EAAA-NHEt)
7 | 5.27 |  | 4.92 |  | CCCCCCCCCCC(=O)N[C@@H](CC(=O)O)C(=O)N[C@@H](C)C(=O)N[C@@H](C)C(=O)N1CCC[C@H]1C(=O)NCC [UDA--Asp--Ala--Ala--Pro--NH--Et, N^α -Undecanoylaspartyl-alanyl-alanyl-proline ethylamide] (Undecanoyl-DAAP-NHEt)
8 | 6.22 | 6.30 | 4.00 |  | CCCCCCCCCC=CCC(CC(=O)O)C(=O)N[C@@H](C)C(=O)N[C@@H](C)C(=O)N1CCC[C@H]1C(=O)NCCC (some centres unmarked) [Dde--Ala--Ala--Pro--NH--Pr, N-(2-Dodecenylsuccinyl)alanyl-alanyl-proline propylamide]
